# Measurements reported in patent publication US20230165252A1, “ACTIVE COMPOUND COMBINATIONS” (Bayer Aktiengesellschaft, priority 2020, published 2023).
# Values joined by “and” are separate entries in the source; they are usually repeats but may differ in a detail not shown here. Identical values can stand only once. Like-named read-outs stand apart in the source and are kept apart here.
# Columns and labels:
# Format in all cases: cell-based
# [1] = test system: Ustilago segetum var. avenae; test: in vitro-Test with Ustilago segetum var. avenae (microtiter growth inhibition); details: single compound
# Procedure: (§1) The degree of efficacy expressed in % is denoted: 0% means an efficacy, which corresponds to that of the control, while an efficacy of 100% means that no disease is observed.
# (§2) If the actual fungicidal activity exceeds the calculated value, then the activity of the combination is super-additive, i.e. a synergistic effect exists. In this case, the efficacy, which was actually observed, must be greater than the value for the expected efficacy (E), that was calculated from the abovementioned formula.
# (§3) Example: In Vitro-Test with Fungal Microorganisms
# (§4) Wells of 96-well microtiter plates are filled with 10 μl of a preparation of test compound or compound combination in methanol+emulsifier alkylaryl-polyglycol-ether. Thereafter, the solvent is evaporated in a hood. At the next step, 100 μl of liquid potato dextrose medium is given into each well, that has been amended with an appropriate concentration of spores or mycelium suspension of the test fungus.
# (§5) With the aid of a photometer, the extinction in all wells is measured at the wavelength of 620 nm.
# (§6) The microtiter plates are incubated at 20° C. and 85% relative humidity. The inhibition of growth is determined again photometrically 3-5 days after the application. Efficacy is calculated in relation to the untreated control, 0% efficacy means fungal growth as high as in untreated control while 100% efficacy means no fungal growth is measured.
# Fusarium culmorum = test: in vitro-Test with Fusarium culmorum (microtiter growth inhibition)
# Procedure: as §1, §2, §3, §4, §5, §6
# Alternaria alternate = test: in vitro-Test with Alternaria alternate (microtiter growth inhibition)
# Procedure: as §1, §2, §3, §4, §5, §6
# Cercospora beticola = test: in vitro-Test with Cercospora beticola (microtiter growth inhibition); details: alone
# Procedure: as §1, §2, §3, §4, §5, §6
# Cordana musae = test: in vitro-Test with Cordana musae (microtiter growth inhibition); details: single substance
# Procedure: as §1, §2, §3, §4, §5, §6
# Diaporthe citri = test: in vitro-Test with Diaporthe citri (microtiter growth inhibition)
# Procedure: as §2, §3, §4, §5, §6
# [2] = Fusarium culmorum, read-out: Efficacy
# [3] = Alternaria, alone, read-out: Efficacy %
# [4] = Alternaria, applied alone, read-out: Efficacy
# [5] = Neocordana musae, read-out: Efficacy
# [6] = Diaporthe citri, read-out: Efficacy
# [7] = Diaporthe citri, applied alone, read-out: Efficacy
smiles,measurement,setting,value
CC(C)c1ccc(Cl)cc1CN(C(=O)c1c(C(F)F)nn(C)c1F)C1CC1 [isoflucypram],Efficacy %,[1]; 0.008 ppm,0%
same,Efficacy %,[1]; 0.04 ppm,45%
same,Efficacy %,[1]; 0.2 ppm,100%
same,Efficacy %,[1]; 1.0 ppm,100%
same,Efficacy,Fusarium culmorum; 0.008 ppm,0%
same,Efficacy,Fusarium culmorum; 0.04 ppm,0%
same,Efficacy,Fusarium culmorum; 0.2 ppm,0%
same,Efficacy,Fusarium culmorum; 1.0 ppm,0%
same,Efficacy %,"Alternaria alternate; 0.008 ppm, alone",44% and 41%
same,Efficacy %,"Alternaria alternate; 0.04 ppm, alone",69% and 76%
same,Efficacy %,"Alternaria alternate; 0.2 ppm, alone",85% and 81%
same,Efficacy %,"Alternaria alternate; 1.0 ppm, alone",74%
same,Efficacy,"Alternaria alternate; applied alone, 0.008 ppm",53%
same,Efficacy,"Alternaria alternate; applied alone, 0.04 ppm",71%
same,Efficacy,"Alternaria alternate; applied alone, 0.2 ppm",73%
same,Efficacy %,Cercospora beticola; 0.008 ppm,11%
same,Efficacy %,Cercospora beticola; 0.04 ppm,16%
same,Efficacy %,Cercospora beticola; 1.0 ppm,35% and 39%
same,Efficacy,Cordana musae; 0.008 ppm,0%
same,Efficacy,Cordana musae; 0.04 ppm,10% and 12%
same,Efficacy,Cordana musae; 0.2 ppm,0%
same,Efficacy,Cordana musae; 1.0 ppm,18% and 8%
same,Efficacy,"Diaporthe citri; applied alone, 0.008 ppm",0%
same,Efficacy,"Diaporthe citri; applied alone, 0.04 ppm",0%
same,Efficacy,"Diaporthe citri; applied alone, 0.2 ppm",0%
same,Efficacy,"Diaporthe citri; applied alone, 1.0 ppm",49% and 41%
O=C(NCCc1ncc(C(F)(F)F)cc1Cl)c1ccccc1C(F)(F)F [fluopyram],inhibition of growth at 0.8 ppm,Fusarium culmorum; [2],1%
same,inhibition of growth at 4 ppm,"Fusarium culmorum; Fusarium culmorum, 4 ppm, read-out: Efficacy",0%
same,inhibition of growth at 20 ppm,Fusarium culmorum; [2],3%
same,inhibition of growth at 0.8 ppm,Alternaria alternate; [3],77%
same,inhibition of growth at 4 ppm,"Alternaria alternate; Alternaria, 4 ppm, alone, read-out: Efficacy %",94%
same,inhibition of growth at 0.8 ppm,Alternaria alternate; [4],81%
same,inhibition of growth at 4 ppm,"Alternaria alternate; Alternaria, applied alone, 4 ppm, read-out: Efficacy",85%
same,inhibition of growth at 20 ppm,Alternaria alternate; [4],99%
same,inhibition of growth at 20 ppm,"Cercospora beticola; Cercospora beticola, 20 ppm, read-out: Efficacy %",17%
same,inhibition of growth at 0.8 ppm,"Cordana musae; Neocordana musae, 0.8 ppm, read-out: Efficacy",0%
same,inhibition of growth at 4 ppm,Cordana musae; [5],5%
same,inhibition of growth at 20 ppm,"Cordana musae; Neocordana musae, 20 ppm, read-out: Efficacy",20%
same,inhibition of growth at 4 ppm,"Diaporthe citri; Diaporthe citri, applied alone, 4 ppm, read-out: Efficacy",0%
same,inhibition of growth at 20 ppm,"Diaporthe citri; Diaporthe citri, applied alone, 20 ppm, read-out: Efficacy",26%
COc1ccnc(C(=O)N[C@H]2COC(=O)[C@H](Cc3ccccc3)[C@@H](OC(=O)C(C)C)[C@H](C)OC2=O)c1OCOC(=O)C(C)C [fenpicoxamid],Efficacy,Fusarium culmorum; 0.04 ppm,0%
same,Efficacy,Fusarium culmorum; 0.2 ppm,0%
same,Efficacy,Fusarium culmorum; 1.0 ppm,0%
same,Efficacy,Fusarium culmorum; 5.0 ppm,0%
same,Efficacy %,"Alternaria alternate; 0.2 ppm, alone",10% and 4%
same,Efficacy %,"Alternaria alternate; 5.0 ppm, alone",80% and 81%
same,Efficacy,"Alternaria alternate; applied alone, 5.0 ppm",64%
same,Efficacy %,Cercospora beticola; 1.0 ppm,74% and 58% and 42%
same,Efficacy %,Cercospora beticola; 5.0 ppm,86% and 78%
same,Efficacy,Cordana musae; 1.0 ppm,50%
same,Efficacy,Cordana musae; 5.0 ppm,74%
same,Efficacy,"Diaporthe citri; applied alone, 0.04 ppm",0%
same,Efficacy,"Diaporthe citri; applied alone, 0.2 ppm",5% and 0%
same,Efficacy,"Diaporthe citri; applied alone, 1.0 ppm",87% and 73% and 75%
same,Efficacy,"Diaporthe citri; applied alone, 5.0 ppm",94% and 93% and 90%
O=C1C2CC=CCC2C(=O)N1SC(Cl)(Cl)Cl (stereo not shown) [captan],inhibition of growth at 0.8 ppm,Fusarium culmorum; [2],2%
same,inhibition of growth at 20 ppm,Fusarium culmorum; [2],5%
same,inhibition of growth at 20 ppm,Alternaria alternate; [3],83%
same,inhibition of growth at 0.8 ppm,Alternaria alternate; [4],10%
same,inhibition of growth at 20 ppm,Alternaria alternate; [4],100%
same,Efficacy,"Alternaria alternate; applied alone, 4 ppm",100%
same,inhibition of growth at 4 ppm,"Cercospora beticola; Cercospora beticola, 4 ppm, read-out: Efficacy %",73%
same,inhibition of growth at 4 ppm,Cordana musae; [5],2%
same,Efficacy,Cordana musae; 0.8 ppm,0%
O=C1c2ccccc2C(=O)N1SC(Cl)(Cl)Cl [folpet],inhibition of growth at 0.08 ppm,"[1]; 0.08 ppm, read-out: Efficacy %",12%
same,inhibition of growth at 0.4 ppm,"Fusarium culmorum; Fusarium culmorum, 0.4 ppm, read-out: Efficacy",0%
same,inhibition of growth at 2 ppm,"Fusarium culmorum; Fusarium culmorum, 2 ppm, read-out: Efficacy",62%
same,inhibition of growth at 10 ppm,"Fusarium culmorum; Fusarium culmorum, 10 ppm, read-out: Efficacy",100%
same,inhibition of growth at 0.4 ppm,Alternaria alternate; [3],0%
same,inhibition of growth at 0.08 ppm,"Alternaria alternate; Alternaria, applied alone, 0.08 ppm, read-out: Efficacy",5%
same,inhibition of growth at 0.4 ppm,Alternaria alternate; [4],1%
same,inhibition of growth at 2 ppm,"Alternaria alternate; Alternaria, applied alone, 2 ppm, read-out: Efficacy",100%
same,inhibition of growth at 10 ppm,"Alternaria alternate; Alternaria, applied alone, 10 ppm, read-out: Efficacy",100%
same,inhibition of growth at 0.08 ppm,"Cercospora beticola; Cercospora beticola, 0.08 ppm, read-out: Efficacy %",7%
same,inhibition of growth at 2 ppm,"Cercospora beticola; Cercospora beticola, 2 ppm, read-out: Efficacy %",100%
same,inhibition of growth at 10 ppm,"Cercospora beticola; Cercospora beticola, 10 ppm, read-out: Efficacy %",100%
same,inhibition of growth at 0.08 ppm,Diaporthe citri; [6],20%
same,inhibition of growth at 0.4 ppm,Diaporthe citri; [6],33%
same,inhibition of growth at 2 ppm,"Diaporthe citri; Diaporthe citri, 2 ppm, read-out: Efficacy",98%
same,inhibition of growth at 0.08 ppm,Diaporthe citri; [7],0%
same,inhibition of growth at 0.4 ppm,Diaporthe citri; [7],53%
same,inhibition of growth at 10 ppm,"Diaporthe citri; Diaporthe citri, applied alone, 10 ppm, read-out: Efficacy",99%
